This is an account of results in patent publication US6893813B2, “Methods for treatment of HIV and other infections using a T cell or viral activator and anti-retroviral combination therapy” (priority 1997, dated 2005).

Experiment [1] deals with PBMCs isolated from HIV-infected subjects. The experiment in a line: culture of PBMCs from HIV-infected subjects without anti-retroviral drugs: T cell subsets. It is filed as cell-based, human. As to conditions: no anti-retroviral drugs. From the text: (§1) The percent of CD8+ cells in the culture increased with lower concentrations of CD3,8 BSMAB. […] Absent anti-retroviral drugs, this massive activation of HIV will eventually cause a sharp decrease in the CD4+ T cell population.

For a further experiment, the system named is HIV. As to the kind of experiment: HIV replication (p24 in culture supernatant) in PBMC cultures without anti-retroviral drugs. It is filed as cell-based, human. As to conditions: no anti-retroviral drugs.
Description: as §1

With phytohemagglutinin [PHA], in experiment [1], the “T cell subsets activated” value was “both CD4+ and CD8+ T cells were activated”; the “selective outgrowth of CD4+ T cells” value is on record as “No selective outgrowth of the CD4+ T cells occurred”. Besides, the “HIV replication (p24 in supernatant)” value with HIV is “induced increased HIV replication”.
